Columns and labels:
Assay in all cases: Post-emergence herbicidal test, % visual injury
Assay type in all cases: in vivo
Details in all cases: 336 h, 14±1 days post application; for pest or weed control at 500 g/ha: rate 500 g/ha; for pest or weed control at 250 g/ha: rate 250 g/ha
[1] = system: Lolium multiflorum (LOLMU)
Experimental: (§1) Seeds of a variety of test species are grown in a sandy loam soil mixture, Lolium multiflorum (LOLMU), Amaranthus retroflexus (AMARE), Echinochloa crus-galli (ECHCG), Veronica persica (VERPE).
(§2) After sowing, at growth stage BBCH 12-14 (post-emergence), the plants are sprayed with an aqueous spray solution derived from the formulation of the technical active ingredient in acetone/water (50:50) solution containing 0.5% Tween 20 (polyoxyethlyene sorbitan monolaureate, CAS RN 9005-64-5). The test compounds are applied at the required concentration of active ingredient in g/ha. The test plants are then grown in a glasshouse under controlled environmental conditions and watered regularly as required. After 14±1 days post application (for post-emergence test), the test is evaluated by assessing the percentage damage caused to the plants in comparison with the untreated plots. The biological activities for post-emergence testing are shown below (Table 3) as a % visual injury.

[2] = system: Amaranthus retroflexus (AMARE)
Experimental: as §1, §2

[3] = system: Echinochloa crus-galli (ECHCG)
Experimental: as §1, §2

Veronica persica (VERPE) = system: Veronica persica (VERPE)
Experimental: as §1, §2

SMILES	pest or weed control at 500 g/ha [1]	pest or weed control at 500 g/ha [2]	pest or weed control at 500 g/ha [3]	pest or weed control at 500 g/ha (Veronica persica (VERPE))	other results
CN(C(=O)COc1ccc(F)cc1Cl)c1nc(C(F)(F)F)nn1C [Compound 42, 2-(2-chloro-4-fluorophenoxy)-N-methyl-N-[1-methyl-3-(trifluoromethyl)-1H-1,2,4-triazol-5-yl]acetamide]	40%	90%	60%	60%	–
CC(C)(C)c1nc(NC(=O)COc2ccc(F)cc2Cl)n[nH]1 [Compound 7]	40%	60%	80%	60%	–
COCc1n[nH]c(NC(=O)COc2ccc(F)cc2Cl)n1 [Compound 3]	60%	100%	90%	90%	–
O=C(COc1ccc(F)cc1Cl)Nc1nnc(-c2cccc3ccccc23)[nH]1 [Compound 101]	20%	100%	70%	80%	–
COc1nnc(NC(=O)COc2ccc(F)cc2Cl)[nH]1 [Compound 99]	–	–	–	–	pest or weed control at 250 g/ha [1]: 0%; pest or weed control at 250 g/ha [2]: 50%; pest or weed control at 250 g/ha [3]: 0%; pest or weed control at 250 g/ha (Veronica persica (VERPE)): 50%
O=C(COc1cccc(C(F)(F)F)c1)Nc1nnc(C(F)(F)F)[nH]1 [Compound 4]	0%	99%	20%	80%	–
O=C(COc1c(Cl)cccc1Cl)Nc1nnc(C(F)(F)F)[nH]1 [Compound 9]	0%	20%	0%	0%	–
O=C(COc1cccc(Br)c1)Nc1nnc(C(F)(F)F)[nH]1 [Compound 21]	20%	0%	0%	60%	–
CN(C)c1n[nH]c(NC(=O)COc2ccc(F)cc2Cl)n1 [Compound 24]	0%	70%	70%	50%	–
O=C(COc1ccc(Cl)cc1Cl)Nc1nnc(C(F)(F)F)o1 [Compound 97]	–	–	–	–	pest or weed control at 125 g/ha ([1]; rate 125 g/ha): 0%; pest or weed control at 125 g/ha ([2]; rate 125 g/ha): 100%; pest or weed control at 125 g/ha ([3]; rate 125 g/ha): 0%; pest or weed control at 125 g/ha (Veronica persica (VERPE); rate 125 g/ha): 100%
Cc1ccc(OCC(=O)Nc2nnc(C(F)(F)F)[nH]2)c(Br)c1 [Compound 15]	0%	0%	0%	50%	–
Cc1ccccc1OCCCC(=O)Nc1nnc(C(F)(F)F)[nH]1 [Compound 89]	0%	40%	0%	95%	–
O=C(COc1nc(Cl)c(Cl)cc1Cl)Nc1nnc(C(F)(F)F)[nH]1 [Compound 37]	5%	80%	60%	30%	–
Cn1c(NC(=O)COc2ccc(F)cc2Cl)nnc1C(F)(F)F [Compound 40]	60%	100%	70%	100%	–
O=C(COc1ccc2c(c1)NC(=O)CC2)Nc1nc(C(F)(F)F)n[nH]1 [Compound 90]	0%	0%	0%	70%	–
O=C(COc1ccc(F)cc1Cl)Nc1n[nH]c(C2CCC2)n1 [Compound 22]	40%	100%	90%	90%	–
O=C(COc1ccc(Cl)c(F)c1)Nc1nnc(C(F)(F)F)[nH]1 [Compound 16, 2-(4-chloro-3-fluorophenoxy)-N-[5-(trifluoromethyl)-4H-1,2,4-triazol-3-yl]acetamide]	0%	100%	20%	70%	–
O=C(COc1ccccc1-n1cnnc1)Nc1nc(C(F)(F)F)n[nH]1 [Compound 92]	0%	0%	0%	70%	–
CS(=O)(=O)c1ccc(OCC(=O)Nc2nnc(C(F)(F)F)[nH]2)cc1 [Compound 13]	60%	60%	0%	80%	–
CCC(Oc1ccccc1F)C(=O)Nc1nnc(C(F)(F)F)[nH]1 (stereo not drawn) [Compound 19]	0%	0%	0%	20%	–
Cn1ccc2c(OCC(=O)Nc3nc(C(F)(F)F)n[nH]3)cccc21 [Compound 91]	0%	0%	0%	70%	–
CC(Oc1cccc(Cl)c1)C(=O)Nc1nnn[nH]1 (stereo not drawn) [Compound 98]	–	–	–	–	pest or weed control at 250 g/ha [1]: 10%; pest or weed control at 250 g/ha [2]: 0%; pest or weed control at 250 g/ha [3]: 0%; pest or weed control at 250 g/ha (Veronica persica (VERPE)): 20%
O=C(COc1ccc(Cl)cc1Cl)Nc1nnc(-c2ccc(F)cc2)[nH]1 [Compound 96]	0%	90%	30%	90%	–
CC(C)c1nnc(NC(=O)COc2ccc(F)cc2Cl)[nH]1 [Compound 23, 2-(2-chloro-4-fluorophenoxy)-N-[5-(propan-2-yl)-4H-1,2,4-triazol-3-yl]acetamide]	40%	100%	90%	100%	–
O=C(COc1ccc(F)c(Cl)c1)Nc1nnc(C(F)(F)F)[nH]1 [Compound 5]	0%	80%	30%	98%	–
O=C(COc1ccc(F)cc1Cl)Nc1nnc(N2CCCC2)[nH]1 [Compound 6]	0%	50%	20%	50%	–
Cc1ccc(OCC(=O)Nc2nnc(C(F)(F)F)[nH]2)cc1 [Compound 20]	0%	0%	30%	40%	–
O=C(COc1ccc(F)cc1Cl)Nc1nnc(C(F)F)[nH]1 [Compound 14]	60%	100%	90%	60%	–
O=C(COc1ccc(F)cc1Cl)Nc1n[nH]c(C2CC2)n1 [Compound 1]	40%	100%	90%	60%	–
Nc1c(Cl)c(F)nc(OCC(=O)Nc2nnc(C(F)(F)F)[nH]2)c1Cl [Compound 38]	30%	100%	0%	98%	–

From patent publication US20230255205A1, “HERBICIDAL HETEROCYCLIC DERIVATIVES” (MoA Technology Limited, priority 2020, published 2023)
